Assay [1] deals with T1, juvenile hormone hemolymph carrier protein of H. virescens (Heliothis virescens, UniProt Q25175).
T1 sequence (Q25175 19-242): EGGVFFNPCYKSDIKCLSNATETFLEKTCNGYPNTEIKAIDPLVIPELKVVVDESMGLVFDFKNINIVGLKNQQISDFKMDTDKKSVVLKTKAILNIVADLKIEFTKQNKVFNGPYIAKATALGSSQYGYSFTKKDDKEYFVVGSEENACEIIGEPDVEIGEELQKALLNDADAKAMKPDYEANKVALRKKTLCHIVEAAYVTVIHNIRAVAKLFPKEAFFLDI
Briefly: Binding of juvenile hormone by the hemolymph carrier protein. Particulars: juvenile hormone bound by the carrier protein; for H. virescens.

In assay [2] the target is T2, juvenile hormone esterase (JHE) of Heliothis virescens, wild type (Heliothis virescens, UniProt P12992).
T2 sequence (P12992 20-564): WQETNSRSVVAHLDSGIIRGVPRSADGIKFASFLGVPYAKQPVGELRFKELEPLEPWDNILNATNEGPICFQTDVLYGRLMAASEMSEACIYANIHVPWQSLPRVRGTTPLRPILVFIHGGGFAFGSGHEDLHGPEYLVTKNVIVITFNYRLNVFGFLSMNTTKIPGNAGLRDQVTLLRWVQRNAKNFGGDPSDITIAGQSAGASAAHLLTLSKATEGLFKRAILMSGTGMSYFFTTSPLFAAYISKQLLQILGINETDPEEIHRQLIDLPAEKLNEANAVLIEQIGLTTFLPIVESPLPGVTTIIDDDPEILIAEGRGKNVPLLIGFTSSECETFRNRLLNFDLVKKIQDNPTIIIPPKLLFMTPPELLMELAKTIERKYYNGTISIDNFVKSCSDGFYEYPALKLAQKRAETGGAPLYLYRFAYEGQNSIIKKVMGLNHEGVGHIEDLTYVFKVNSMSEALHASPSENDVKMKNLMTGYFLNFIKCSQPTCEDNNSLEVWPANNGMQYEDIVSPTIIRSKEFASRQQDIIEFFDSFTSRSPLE
Briefly: Kinetics of juvenile hormone hydrolysis by juvenile hormone esterase. The class given is biochemical.

In turn, juvenile hormone displayed an equilibrium dissociation constant (Kd) in assay [1] of 610 nM. Besides, in assay [2] (substrate JH, JHE of H. virescens and of several other species), the kCAT/KM ratio is > 10^8. In assay [2] (substrate juvenile hormone), the Michaelis-Menten constant (Km) was determined as 0.06 µM.
